{
  "source": "patent US10852236B2",
  "about": "“Method of measuring plant nutrient transport using near-infrared imaging” (Curadel, LLC, priority 2017, dated 2020)",
  "key": {"[1]": {"experiment": "solubility of the dye in the plant nutrient", "assay_type": "physicochemical", "details": "dye in its small molecule form; nutrient may be water"}, "[2]": {"experiment": "in vivo early half-life of the dye", "details": "dye in its small molecule form"}},
  "data": [
    {"molecule": "CC1(C)C(/C=C/C=C/C=C/C=C2\\N(CCCCS(=O)(=O)O)c3ccc4ccccc4c3C2(C)C)=[N+](CCCCS(=O)(=O)[O-])c2ccc3ccccc3c21", "note": "[Indocyanine green, indocyanine green]", "values": [
      {"measurement": "solubility in the nutrient", "setting": "[1]", "value": "somewhat less soluble"},
      {"measurement": "in vivo early half-life", "setting": "[2]", "value": "shorter"}
    ]}
  ]
}
